Here are results for two molecules from PMC8113758, “Functional Characterization of Sex Pheromone Neurons and Receptors in the Armyworm, Mythimna separata (Walker)” (Frontiers in Neuroanatomy, 2021).

Common to all, as to assay: two-electrode voltage clamp, Xenopus oocytes, dose-response
Common to all, as to assay type: cell-based, Mythimna separata

One assay concerns T1, MsepPR1.
T1 construct: full-length; with MsepOrco

In another assay the test system is T2, MsepPR5.
T2 construct: full-length; with MsepOrco

Another assay relates to T3, MsepPR6.
T3 construct: full-length; with MsepOrco

For the molecule `CCCC/C=C\CCCCCCCC=O` [Z9–14:Ald, (Z)-9-tetradecenal], the EC50 worked out at 49 µM with MsepPR1 and 30.4 µM in the assay with MsepPR5.
Regarding `CCCC/C=C\CCCCCCCCOC(C)=O` [Z9–14:OAc, (Z)-9-tetradecen-1-yl acetate], the EC50 in the assay on MsepPR6 amounted to 0.746 µM.
